pIC50: −log10 of the molar value.

One assay deals with T1, hALDH1a2 (Homo sapiens, UniProt O94788).
T1 construct: pET-Aldh1a2 transformed BL21-DE3 cultures; cell extracts
T1 sequence (O94788 1-518): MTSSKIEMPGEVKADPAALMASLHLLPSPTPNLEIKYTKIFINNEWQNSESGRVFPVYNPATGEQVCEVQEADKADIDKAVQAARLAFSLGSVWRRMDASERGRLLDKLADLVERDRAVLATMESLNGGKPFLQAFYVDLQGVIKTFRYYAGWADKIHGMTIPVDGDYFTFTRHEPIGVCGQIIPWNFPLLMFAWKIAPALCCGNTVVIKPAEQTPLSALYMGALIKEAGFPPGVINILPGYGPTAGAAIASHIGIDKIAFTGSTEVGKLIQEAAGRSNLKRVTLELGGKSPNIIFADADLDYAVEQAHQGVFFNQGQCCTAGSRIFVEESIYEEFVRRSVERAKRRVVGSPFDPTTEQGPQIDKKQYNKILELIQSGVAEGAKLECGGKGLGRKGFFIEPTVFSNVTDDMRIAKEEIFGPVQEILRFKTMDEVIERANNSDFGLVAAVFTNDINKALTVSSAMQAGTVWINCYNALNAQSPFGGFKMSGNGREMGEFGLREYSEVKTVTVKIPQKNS
The assay can be described thus: biochemical. Particulars: read-out: hAldhla2 IC50. On the procedure:
(§1) Biological Example 5C. Aldh1a2 Enzyme Inhibition Assay
(§2) Cell extracts were spun at 16000 x g for 5 minutes.
(§3) Recombinant enzyme and inhibitor added immediately before assay. Reaction rate measured by resorufin fluorescence. […]
(§4) Table 3B. IC50 values (nM) for inhibition of hALDH1a2 and mALDH1a2 of selected compounds

The target in the next assay is T2, mALDH1a2 (Mus musculus, UniProt Q62148).
T2 construct: pET-Aldh1a2 transformed BL21-DE3 cultures; cell extracts
T2 sequence (Q62148 1-518): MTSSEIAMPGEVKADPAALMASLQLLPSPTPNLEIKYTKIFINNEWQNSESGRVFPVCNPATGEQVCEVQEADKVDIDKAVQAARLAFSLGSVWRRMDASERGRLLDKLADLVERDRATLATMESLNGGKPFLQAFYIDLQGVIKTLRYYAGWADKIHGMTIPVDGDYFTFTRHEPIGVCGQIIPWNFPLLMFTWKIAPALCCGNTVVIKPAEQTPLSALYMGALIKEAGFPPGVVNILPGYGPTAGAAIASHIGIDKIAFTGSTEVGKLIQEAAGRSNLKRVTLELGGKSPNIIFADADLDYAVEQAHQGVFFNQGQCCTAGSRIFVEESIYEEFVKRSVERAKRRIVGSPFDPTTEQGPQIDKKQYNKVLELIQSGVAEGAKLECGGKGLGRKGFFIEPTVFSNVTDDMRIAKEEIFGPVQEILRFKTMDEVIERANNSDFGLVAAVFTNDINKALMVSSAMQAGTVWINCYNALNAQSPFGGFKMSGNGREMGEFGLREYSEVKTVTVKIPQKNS
The assay can be described thus: biochemical. Particulars: read-out: mAldhla2 IC50. On the procedure: as §1, §2, §3, §4

For the compound `O=C1CCc2cc(NC(=O)c3ccncc3)c(F)cc2N1` [compound 2], the pIC50 (in general, the negative decadic logarithm of the IC50, by convention in mol/L) on hALDH1a2 is under 5.00; at mALDH1a2 it was 5.00.

`CCc1cnccc1CNc1cc2c(cc1F)NC(=O)CC2` [compound 3]: the pIC50 at hALDH1a2 is 5.40; at mALDH1a2, 5.48.

With `CCc1ccccc1C(=O)Nc1cc2c(cc1F)NC(=O)CC2` [compound 4], the negative logarithm of the IC50 (pIC50) on hALDH1a2 was 5.30; at mALDH1a2 it was 5.40.

For the compound `CCCc1cnccc1C(=O)Nc1cc2c(cc1F)NC(=O)CC2` [compound 5], the pIC50 at hALDH1a2 is 5.05; at mALDH1a2 it was 5.00.

Take `CC(C)c1cnccc1C(=O)Nc1cc2c(cc1F)NC(=O)CC2` [compound 6]: the figures for the pIC50 at hALDH1a2 and on mALDH1a2 were under 5.00 and 5.00, respectively.

As for `CC(C)Cc1cnccc1C(=O)Nc1cc2c(cc1F)NC(=O)CC2` [compound 7], the figures for the negative-log IC50 (pIC50) on hALDH1a2 and on mALDH1a2 were 5.46 and 5.05, respectively.

On to `CCc1cnc(C)cc1C(=O)Nc1cc2c(cc1F)NC(=O)CC2` [compound 8], for which the results for the pIC50 on hALDH1a2 and at mALDH1a2 were 5.05 and 5.30, respectively.

With `Cc1ccc(C)c(CNc2ccc3c(c2)CCC(=O)N3)c1` [compound 10], the negative logarithm of the IC50 (pIC50) at hALDH1a2 was 5.05; on mALDH1a2, 5.46.

On to `Cc1ccc(C(=O)Nc2ccc3c(c2)CCC(=O)N3)cc1C` [compound 11], for which the pIC50 on hALDH1a2 and at mALDH1a2 was under 5.00 in each case.

Regarding `Cc1ccc(C(=O)Nc2ccc3c(c2)CCC(=O)N3)c(C)c1` [compound 12], the pIC50 on hALDH1a2 and on mALDH1a2 was under 5.00 each time.

Turning to `Cc1ccccc1C(=O)Nc1ccc2c(c1)CCC(=O)N2` [compound 13], the negative-log IC50 (pIC50) on hALDH1a2 was 5.30; on mALDH1a2 it was 5.53.

For the compound `O=C1CCc2cc(NCc3ccccc3)ccc2N1` [compound 14], the pIC50 at hALDH1a2 and on mALDH1a2 was 5.00 in each case.

On to `Cc1cnccc1C(=O)Nc1cc2c(cc1F)NC(=O)CC2` [compound 15], for which the pIC50 at hALDH1a2 and at mALDH1a2 was 5.00 throughout.

Take `Cc1cc(C(=O)Nc2cc3c(cc2F)NC(=O)CC3)ccn1` [compound 16]: the negative-log IC50 (pIC50) on hALDH1a2 and at mALDH1a2 was 5.00 each time.

As for `O=C1CCc2cc(NCc3cc[nH]c3)c(F)cc2N1` [compound 17], the negative-log IC50 (pIC50) at hALDH1a2 and on mALDH1a2 was 5.00 each time.

In the case of `CCc1cnccc1C(=O)Nc1ccc2c(c1)CC(C)(C)C(=O)N2` [compound 18], the pIC50 was 5.67 at hALDH1a2 and 5.76 at mALDH1a2.

As to `CCc1cnccc1C(=O)Nc1ccc2c(c1)C(C)(C)CC(=O)N2` [compound 19], the pIC50 at hALDH1a2 is 6.19; at mALDH1a2 it was 5.98.

As to `CCc1cnccc1C(=O)Nc1ccc2c(c1)CN(C)C(=O)N2` [compound 20], the negative-log IC50 (pIC50) is under 5.00 on hALDH1a2 and under 4.00 on mALDH1a2.

With `Cc1cnccc1C(=O)Nc1ccc2c(c1)CCC(=O)N2` [compound 21], the negative logarithm of the IC50 (pIC50) was 4.52 on hALDH1a2 and 4.49 at mALDH1a2.

In the case of `O=C1CCc2cc(Nc3nccc4ccccc34)ccc2N1` [compound 22], the pIC50 at hALDH1a2 was 4.70; at mALDH1a2 it was 4.60.

Take `Cc1cc(C(=O)Nc2ccc3c(c2)CCC(=O)N3)ccn1` [compound 24]: the pIC50 on hALDH1a2 and at mALDH1a2 was 4.00 each time.

On to `Cc1cnccc1/C=C/c1ccc2c(c1)CCC(=O)N2` [compound 30], for which the results for the negative-log IC50 (pIC50) on hALDH1a2 and at mALDH1a2 were 5.05 and 4.95, respectively.

Take `CCc1cnccc1/C=C/c1ccc2c(c1)CCC(=O)N2` [compound 33]: the pIC50 at hALDH1a2 was 6.59; at mALDH1a2, 6.84.

For `CC1(C)CC(=O)Nc2ccc(Nc3nccc4ccccc34)cc21` [compound 34], the pIC50 was 4.41 on hALDH1a2 and 4.51 at mALDH1a2.

As to `O=C1CCc2cc(Nc3ccc4ccccc4n3)ccc2N1` [compound 35], the pIC50 at hALDH1a2 was 6.83; at mALDH1a2, 7.00.

`Cc1cc(C(=O)Nc2cc3c(cc2F)NC(=O)C(C)(C)C3)c(CC(C)C)cn1` [compound 37]: the pIC50 at hALDH1a2 and on mALDH1a2 was under 5.00 in each case.

Regarding `CCc1cnccc1C(=O)Nc1cc2c(cc1F)NC(=O)C(C)(C)C2` [compound 38], the pIC50 at hALDH1a2 and at mALDH1a2 was under 5.00 each time.

For the origin of these results see EP4803142A2 (Kayothera Inc., priority 2021, dated 2022).
